These results are taken from patent US20250059186A1, “Tricyclic Fused Heterocyclic PDE3/4 Dual Inhibitor and Use Thereof” (XIZANG HAISCO PHARMACEUTICAL CO., LTD., priority 2021, published 2025).

Where two headings read alike, the source gives them in different places.

One data set deals with PDE3A recombinant enzyme (Homo sapiens (Human), UniProt Q14432). Description: In vitro assay of inhibitory activity against PDE 3A enzyme (FP, FAM-cAMP). Type of data set: biochemical. As for the experimental part:
1. In Vitro Assay of the Inhibitory Activity of Compounds Against PDE 3A and PDE 4B2 Enzymes
• Envision 2104 Multilabel Reader (PerkinElmer) • Black 96-well Plate (Cat #6005540, PerkinElmer) • PDE3A Assay Kit (BPS, Cat. 79736), PDE4B2 Assay Kit (BPS, Cat. 60343) • PDE3A recombinant enzyme • PDE4B2 recombinant enzyme • FAM-Cyclic-3′, 5′-AMP • PDE assay buffer • Binding Agent • Binding Agent Diluent (cAMP)
• 1) Prepare FAM cAMP working solution: 20 μL of FAM-Cyclic-3′, 5′-AMP stock was added to 1980 μL of PDE assay buffer. The mixture was added to all wells at 25 μL/well. • 2) Prepare compound solution: the test compounds were dissolved in DMSO to make a 10 mM stock solution. The compound stock solution was diluted in DMSO to a 100× Top Dose diluent. 5 μL of 100× Top Dose diluent was added to 45 μL of PDE assay buffer to prepare a compound Top Dose working solution. Then, the compound working solution was subjected to double dilution with PDE assay buffer containing 10% DMSO to prepare compound working solutions of various concentrations. The compound working solutions were added to compound wells at 5 μL/well. 5 μL of PDE assay buffer containing 10% DMSO was added to each control well. • 3) Prepare PDE enzyme solution: PDE3A and PDE4B2 enzyme stock solutions were diluted to 150 pg/μL and 50 pg/μL, respectively, with PDE assay buffer, and added to all compound wells and Vehicle control wells at 20 μL/well. 20 μL of PDE assay buffer was added to Blank control wells. • 4) React at room temperature for 1 h. • 5) Prepare Binding Agent: 80 μL of binding agent was added to 7920 μL of binding agent diluent, and the mixture was mixed well and added to all wells at 100 μL/well. • 6) React at room temperature for 1 h. • 7) Read FP on Envision. • 8) Calculation formula for original data:
[formula] • FPS=sample FP • FPV=Vehicle control FP • FPB=Blank control FP.
Nonlinear regression analysis of log[dose]-inhibition rate was performed by graphpad and IC50 was calculated.

The test system of data set [1] is methacholine-induced bronchoconstriction. Description: Inhibitory effect on methacholine-induced bronchoconstriction in guinea pigs (WBP, Penh). Type of data set: in vivo, guinea pig. The note with it: male guinea pigs, oral dose of 10 mg/kg, 6 h after drug exposure. The method, then:
2. Study on the Inhibitory Effect of Compounds on Methacholine-Induced Bronchoconstriction in Guinea Pigs
Male guinea pigs were selected as test animals in this study. The drug-treated group was orally administered with RPL554, compound 1 and compound 7 at a dose of 10 mg/kg, respectively, and the control group was administered with an equal dose of solvent. The animals were placed in a WBP instrument aerosol chamber 2 h, 4 h and 6 h after drug exposure. After the animals were adapted, they inhaled 300 μL of […] solution (0.5 mg/mL) by nebulization. After the end of the methacholine (Mch) exposure, Penh values were recorded continuously for 7 minutes. The percentage of bronchoconstriction inhibition by the compounds was calculated based on the Penh values.

The subject of data set [2] is guinea pig tracheal rings. Description: Experiment on guinea pig tracheal rings (carbachol constriction). The note with it: 10 μM single dose; for OT50 (50% inhibition onset time) / RT50 (50% inhibition recovery time): carbachol-constricted tracheal rings; for inhibition at 10 µM: Cavia porcellus, 6.75 h. The method, then:
3. Experiment on Guinea Pig Tracheal Rings
Experimental method: guinea pig tracheal rings were placed in a specific culture medium (Krebs-Henseleit) and balanced under 1 g tension for 40 minutes; carbachol was added in an amount sufficient to achieve 100% constriction of the tracheal rings; […] contractile tension of the tracheal rings.

For data set [3] the following is noted: in vivo; cited from earlier work.
For data set [4] the following is noted: cited from earlier work.
The subject of another data set is PDE4. As to conditions: cited from earlier work.
[5] abbreviates: class symbols, read-out: PDE 3A IC50.
The mark [6] stands for this setting: values in text, read-out: PDE 3 IC50.

Chain of PDE3A recombinant enzyme (Q14432 whole entry): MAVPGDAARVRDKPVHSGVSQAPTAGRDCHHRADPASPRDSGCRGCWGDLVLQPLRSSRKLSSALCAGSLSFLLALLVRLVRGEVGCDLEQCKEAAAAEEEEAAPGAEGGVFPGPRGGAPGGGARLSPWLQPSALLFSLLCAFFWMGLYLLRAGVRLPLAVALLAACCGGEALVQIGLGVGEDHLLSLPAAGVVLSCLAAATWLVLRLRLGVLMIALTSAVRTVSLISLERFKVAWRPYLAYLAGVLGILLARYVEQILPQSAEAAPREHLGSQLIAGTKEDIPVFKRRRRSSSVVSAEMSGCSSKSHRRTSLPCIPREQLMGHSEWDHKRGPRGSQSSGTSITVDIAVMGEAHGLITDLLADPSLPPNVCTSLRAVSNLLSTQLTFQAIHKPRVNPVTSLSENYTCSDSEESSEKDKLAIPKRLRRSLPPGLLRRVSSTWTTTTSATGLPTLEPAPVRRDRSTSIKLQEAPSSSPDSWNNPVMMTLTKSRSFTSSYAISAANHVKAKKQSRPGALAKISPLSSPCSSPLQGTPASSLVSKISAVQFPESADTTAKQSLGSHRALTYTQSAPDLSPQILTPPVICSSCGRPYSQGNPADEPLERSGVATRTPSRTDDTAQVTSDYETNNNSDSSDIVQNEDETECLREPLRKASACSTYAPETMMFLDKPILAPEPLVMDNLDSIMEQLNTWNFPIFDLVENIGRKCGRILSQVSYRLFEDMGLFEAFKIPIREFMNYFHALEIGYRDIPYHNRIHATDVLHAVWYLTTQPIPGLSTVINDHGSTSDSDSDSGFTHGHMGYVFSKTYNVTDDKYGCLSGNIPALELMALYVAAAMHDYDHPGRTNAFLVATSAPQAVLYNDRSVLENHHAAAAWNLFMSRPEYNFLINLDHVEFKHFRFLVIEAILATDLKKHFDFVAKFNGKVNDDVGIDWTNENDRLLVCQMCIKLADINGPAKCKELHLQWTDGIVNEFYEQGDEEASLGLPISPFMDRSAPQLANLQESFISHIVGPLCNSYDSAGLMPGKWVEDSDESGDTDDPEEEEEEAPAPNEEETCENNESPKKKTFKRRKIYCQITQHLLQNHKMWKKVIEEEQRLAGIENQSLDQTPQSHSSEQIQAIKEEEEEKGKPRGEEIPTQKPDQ

Regarding `COc1cc2c(cc1OC)-c1c/c(=N\c3c(C)cc(C(F)(F)F)cc3C)n(CCNC(N)=O)c(=O)n1CC2` [Compound 2, (E)-1-(2-(2-((2,6-dimethyl-4-(trifluoromethyl)phenyl)imino)-9,10-dimethoxy-4-oxo-6,7-dihydro-2H-pyrimido[6,1-a]isoquinolin-3(4H)-yl)ethyl)urea], the IC50 at PDE3A recombinant enzyme is 50 to 100 nM.

As to `[2H]C([2H])([2H])Oc1cc2c(cc1OC)-c1c/c(=N\c3c(C)cc(C)cc3C)n(CCNC(N)=O)c(=O)n1CC2` [Compound 1, (E)-1-(2-(2-(mesitylimino)-10-methoxy-9-(methoxy-d3)-4-oxo-6,7-dihydro-2H-pyrimido[6,1-a]isoquinolin-3(4H)-yl)ethyl)urea], the half-inhibitory concentration (IC50) was less than 50 nM on PDE3A recombinant enzyme (setting [5]) and 0.15 nM on PDE3A recombinant enzyme (setting [6]). Besides, the “Inhibition rate on bronchoconstriction” value in data set [1] is 69%.

Turning to `COc1cc2c(cc1OC)-c1c/c(=N\c3c(C)cc(F)cc3C)n(CCNC(N)=O)c(=O)n1CC2` [Compound 5, (E)-1-(2-(2-((4-fluoro-2,6-dimethylphenyl)imino)-9,10-dimethoxy-4-oxo-6,7-dihydro-2H-pyrimido[6,1-a]isoquinolin-3(4H)-yl)ethyl)urea], on PDE3A recombinant enzyme (setting [5]), the IC50 was 50 to 100 nM.

As for `[2H]C([2H])([2H])Oc1cc2c(cc1OC)CCn1c-2c/c(=N\c2c(C)cc(C)cc2C)n(CCNC(N)=O)c1=O` [Compound 7, (E)-1-(2-(2-(mesitylimino)-9-methoxy-10-(methoxy-d3)-4-oxo-6,7-dihydro-2H-pyrimido[6,1-a]isoquinolin-3(4H)-yl)ethyl)urea], at PDE3A recombinant enzyme (setting [5]), the IC50 is less than 50 nM. Further, the IC50 at PDE3A recombinant enzyme (setting [6]) came out at 0.17 nM. In addition, in data set [2], the “OT50 (50% inhibition onset time)” value amounted to 19.97 min, the “RT50 (50% inhibition recovery time)” value was more than 6.75 h and the inhibition at 10 µM was 75.9%. Also, the “Inhibition rate on bronchoconstriction” value in data set [1] stood at 80%.

Turning to `COc1cc2c(cc1OC)-c1c/c(=N\c3c(C)cc(C)cc3C)n(CCNC(N)=O)c(=O)n1CC2` [RPL554, reference compound], the plasma clearance entry in data set [3] is recorded as “high plasma clearance”. Also, the solubility entry in data set [4] is “poor solubility”. In addition, in data set [2], the “OT50 (50% inhibition onset time)” value worked out at 25.51 min, the “RT50 (50% inhibition recovery time)” value was more than 6.75 h and 10 µM produced 56.7% inhibition. For the same compound, in the data set on PDE4, the PDE4 inhibitory activity entry was “unsatisfactory”. Also, the “Inhibition rate on bronchoconstriction” value in data set [1] turned out to be 35%.

As to `COc1cc2c(cc1OC)-c1c/c(=N\c3c(C)cc(C4CC4)cc3C)n(CCNC(N)=O)c(=O)n1CC2` [Compound 3, (E)-1-(2-(2-((4-cyclopropyl-2,6-dimethylphenyl)imino)-9,10-dimethoxy-4-oxo-6,7-dihydro-2H-pyrimido[6,1-a]isoquinolin-3(4H)-yl)ethyl)urea], the IC50 on PDE3A recombinant enzyme (setting [5]) is less than 50 nM.
